Measured values from ChEMBL document CHEMBL1134495, “3D-QSAR model of flavonoids binding at benzodiazepine site in GABAA receptors” (J Med Chem, 2001).

What follows are molecules tested against GABA-A receptor; anion channel (assay: Binding affinity towards benzodiazepine site in GABAA receptor).
Format: protein-complex assay

Compound	-Log Ki
O=c1cc(-c2cccc([N+](=O)[O-])c2)oc2ccc([N+](=O)[O-])cc12	7.92
COc1ccc(-c2cc(=O)c3cc(Br)ccc3o2)cc1	5.68
O=c1cc(-c2cccc(F)c2)oc2ccc(Br)cc12	7.38
O=c1cc(-c2cccc(Cl)c2)oc2ccc(F)cc12	6.7
O=c1cc(-c2ccc(Br)cc2)oc2ccc([N+](=O)[O-])cc12	7.6
COc1ccc(-c2cc(=O)c3cc(Cl)ccc3o2)cc1	5.9
O=c1cc(-c2ccc(F)cc2)oc2ccccc12	5.44
O=c1cc(-c2cccc(F)c2)oc2ccccc12	5.45
O=c1cc(-c2cccc([N+](=O)[O-])c2)oc2ccc(Br)cc12	9
O=c1cc(-c2cccc(Br)c2)oc2ccc(Cl)cc12	7.64
O=c1cc(-c2ccc(F)cc2)oc2ccc(Cl)cc12	6.74
O=c1cc(-c2cccc(Br)c2)oc2ccc(Br)cc12	7.72
O=c1cc(-c2ccc(F)cc2)oc2ccc(F)cc12	5.6
O=c1cc(-c2ccc([N+](=O)[O-])cc2)oc2ccc(Br)cc12	6.7
O=c1cc(-c2cccc(Br)c2)oc2ccc(F)cc12	6.63
O=c1cc(-c2cccc(Br)c2)oc2ccccc12	6.38
O=c1cc(-c2cccc(F)c2)oc2ccc(Cl)cc12	6.93
O=c1cc(-c2cccc([N+](=O)[O-])c2)oc2ccc(F)cc12	6.74
O=c1cc(-c2cccc(O)c2)oc2ccc(Cl)cc12	6.07
O=c1cc(-c2cccc(F)c2)oc2ccc(F)cc12	6.04
O=c1cc(-c2ccccc2)oc2c(Br)c(O)c(Br)c(O)c12	6.15

Compound	-Log Ki
O=c1cc(-c2ccccc2F)oc2ccc(Br)cc12	6.42
O=c1cc(-c2ccccc2F)oc2ccc(Cl)cc12	6.38
O=c1cc(-c2cccc(Cl)c2)oc2ccccc12	6.21
O=c1cc(-c2ccccc2[N+](=O)[O-])oc2ccc(Br)cc12	6.68
O=c1cc(-c2cccc(O)c2)oc2ccc(Br)cc12	6.22
O=c1cc(-c2cccc(Cl)c2)oc2ccc(Cl)cc12	7.64
O=c1cc(-c2ccccc2Cl)oc2cc(O)cc(O)c12	5.1
O=c1cc(-c2cccc(O)c2)oc2ccc(F)cc12	5.6
O=c1cc(-c2cccc(Cl)c2)oc2ccc(Br)cc12	7.77
O=c1cc(-c2cccc([N+](=O)[O-])c2)oc2ccc(Cl)cc12	8.1
O=c1cc(-c2ccc(F)cc2)oc2ccc(Br)cc12	6.94
O=c1cc(-c2ccccc2F)oc2cc(O)cc(O)c12	5.1
O=c1cc(-c2ccccc2)oc2ccc(Br)cc12 [6-BROMOFLAVONE]	7.15
O=c1cc(-c2ccc(O)cc2)oc2cc(O)cc(O)c12 [APIGENIN]	5.52
O=c1cc(-c2ccccc2)oc2cc(O)c(O)c(O)c12 [BAICALEIN]	5.25
O=C(O)[C@H]1O[C@@H](Oc2cc3oc(-c4ccccc4)cc(=O)c3c(O)c2O)[C@H](O)[C@@H](O)[C@@H]1O [BAICALIN]	4.11
O=c1cc(-c2ccccc2)oc2cc(O)cc(O)c12 [CHRYSIN]	5.52
O=c1cc(-c2ccccc2)oc2ccccc12 [FLAVONE]	6
COc1c(O)cc2oc(-c3ccc(O)cc3)cc(=O)c2c1O [HISPIDULIN]	6
O=c1cc(-c2ccc(O)cc2)oc2cc(O)c(O)c(O)c12 [SCUTELLAREIN]	4.92
COc1c(O)cc(O)c2c(=O)cc(-c3ccccc3)oc12 [WOGONIN]	5.69
